Patent US20230183193A1, “4-DIFLUOROMETHYL BENZOYL AMIDES WITH HERBICIDAL ACTION” (BAYER CROPSCIENCE AKTIENGESELLSCHAFT, priority 2017, published 2023)

Experiments:
Assay type in all cases: in vivo
[1] = system: Alopecurus myosuroides; test: Pre-emergence herbicidal action, ALOMY; conditions: dosage 320 g/ha, scored visually after 3 weeks vs untreated controls
Procedure, shortened: (§1)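 Percent herbicidal activity rated by eye 3 weeks after pre-emergence soil-surface application, compared with untreated pots. Seeds sat under sandy loam; sprays carried 0.2% wetting agent.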

[2] = system: Amaranthus retroflexus; test: Pre-emergence herbicidal action, AMARE; conditions: dosage 320 g/ha, scored visually after 3 weeks vs untreated controls
Procedure, shortened: as §1

[3] = system: ECHCG; test: Post-emergence herbicidal action, ECHCG; conditions: 80 g/ha, Table C
Procedure, shortened: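 Weed and crop plants grown in sandy loam in the greenhouse, treated at the one-leaf stage 2–3 weeks after sowing. Damage scored visually after about 3 weeks vs untreated controls (0% = control, 100% = dead).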

[4] = system: Setaria viridis; test: Pre-emergence herbicidal action, SETVI; conditions: dosage 320 g/ha, scored visually after 3 weeks vs untreated controls
Procedure, shortened: as §1

[5] = system: Avena fatua; test: Pre-emergence herbicidal action, AVEFA; conditions: dosage 320 g/ha, scored visually after 3 weeks vs untreated controls
Procedure, shortened: as §1

[6] = system: Abutilon theophrasti; test: Post-emergence herbicidal action, ABUTH; conditions: 80 g/ha, Table D
Procedure, shortened: (§2)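 Visual percent activity relative to untreated controls, assessed about 3 weeks after foliar treatment, where 0% equals control growth and 100% equals death. Compounds, as wettable powders or emulsion concentrates, are sprayed onto one-leaf-stage plants in sandy loam.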

[7] = system: Viola tricolor; test: Pre-emergence herbicidal action, VIOTR; conditions: dosage 320 g/ha, scored visually after 3 weeks vs untreated controls
Procedure, shortened: as §1

[8] = system: Stellaria media; test: Pre-emergence herbicidal action, STEME; conditions: dosage 320 g/ha, scored visually after 3 weeks vs untreated controls
Procedure, shortened: as §1

[9] = system: Viola tricolor; test: Post-emergence herbicidal action, VIOTR; conditions: 80 g/ha, Table D
Procedure, shortened: as §2

[10] = system: Amaranthus retroflexus; test: Post-emergence herbicidal action, AMARE; conditions: 80 g/ha, Table D
Procedure, shortened: as §2

[11] = system: Setaria viridis; test: Post-emergence herbicidal action, SETVI; conditions: 80 g/ha, Table C
Procedure, shortened: as §2

[12] = system: Matricaria inodora; test: Pre-emergence herbicidal action, MATIN; conditions: dosage 320 g/ha, scored visually after 3 weeks vs untreated controls
Procedure, shortened: as §1

[13] = system: Alopecurus myosuroides; test: Post-emergence herbicidal action, ALOMY; conditions: 80 g/ha, Table C
Procedure, shortened: as §2

[14] = system: Stellaria media; test: Post-emergence herbicidal action, STEME; conditions: 80 g/ha, Table D
Procedure, shortened: as §2

[15] = system: Abutilon theophrasti; test: Pre-emergence herbicidal action, ABUTH; conditions: dosage 320 g/ha, scored visually after 3 weeks vs untreated controls
Procedure, shortened: as §1

[16] = system: Pharbitis purpureum; test: Post-emergence herbicidal action, PHBPU; conditions: 80 g/ha, Table D
Procedure, shortened: as §2

[17] = system: Cyperus serotinus; test: Pre-emergence herbicidal action, CYPES; conditions: dosage 320 g/ha, scored visually after 3 weeks vs untreated controls
Procedure, shortened: as §1

[18] = system: Avena fatua; test: Post-emergence herbicidal action, AVEFA; conditions: 80 g/ha, Table C
Procedure, shortened: as §2

Row | SMILES | herbicidal activity ALOMY [1] [%] | herbicidal activity AMARE [2] [%] | Herbicidal activity ECHCG [3] [%] | herbicidal activity SETVI [4] [%] | herbicidal activity AVEFA [5] [%] | herbicidal activity ABUTH [6] [%] | herbicidal activity VIOTR [7] [%] | Herbicidal activity STEME [8] [%] | herbicidal activity VIOTR [9] [%] | herbicidal activity AMARE [10] [%] | herbicidal activity SETVI [11] [%] | herbicidal activity MATIN [12] [%] | herbicidal activity ALOMY [13] [%] | Herbicidal activity STEME [14] [%] | herbicidal activity ABUTH [15] [%] | Herbicidal activity PHBPU [16] [%] | herbicidal activity CYPES [17] [%] | herbicidal activity AVEFA [18] [%]
1 | CCn1nnnc1NC(=O)c1ccc(C(F)F)c(S(C)(=O)=O)c1Br [Example 2-63] | 100 | 100 | 100 | 100 | 100 | 100 | 100 | 100 | 100 | 100 | 100 | 100 | 100 | 100 | 100 | 100 | 90 | 100
2 | CCSc1c(C(F)F)ccc(C(=O)Nc2nnnn2CC)c1Br [Example 2-64] | 100 | 100 | 100 | 100 | 100 | 100 | 100 | 100 | 100 | 100 | 100 | 100 | 100 | 100 | 100 | 100 | 100 | 100
3 | CCn1nnnc1NC(=O)c1ccc(C(F)F)c(S(=O)(=O)CC)c1I [Example 2-78] | 100 | 100 | 90 | 100 | 100 | 80 | 100 | 100 | 90 | 100 | 90 | 100 | 80 | 100 | 100 | 90 | 100 | 90
4 | CCSc1c(C(F)F)ccc(C(=O)Nc2ncnn2C)c1Cl [Example 4-52] | 100 | 100 | 100 | 100 | 100 | 90 | 100 | 100 | 90 | 100 | 100 | 100 | 90 | 90 | 100 | 100 | 80 | 100
5 | CC[S+]([O-])c1c(C(F)F)ccc(C(=O)Nc2ncnn2C)c1Cl (stereo not drawn) [Example 4-53] | 100 | 100 | 90 | 100 | 100 | 100 | 100 | 100 | 100 | 100 | 100 | 100 | 90 | 90 | 100 | 90 | 100 | 100
6 | CCS(=O)(=O)c1c(C(F)F)ccc(C(=O)Nc2ncnn2C)c1Cl [Example 4-54] | 90 | 100 | 100 | 90 | 80 | 90 | 100 | 100 | 100 | 90 | 100 | 100 | 90 | 100 | 100 | 100 | 80 | 100
7 | CSc1c(C(F)F)ccc(C(=O)Nc2ncnn2C)c1Br [Example 4-61] | 100 | 100 | 100 | 100 | 90 | 100 | 100 | 90 | 100 | 100 | 100 | 100 | 100 | 100 | 100 | 100 | 90 | 100
8 | CCS(=O)(=O)c1c(C(F)F)ccc(C(=O)Nc2nonc2Cl)c1C [Example 6-6] | 90 | 90 | 90 | 100 | 90 | 80 | 100 | 90 | 100 | 80 | 90 | 100 | 80 | 100 | 100 | 100 | 80 | 80
9 | CCc1c(C(=O)Nc2nnc(C)o2)ccc(C(F)F)c1[S+](C)[O-] (stereo not drawn) [Example 7-12] | 100 | 100 | 100 | 100 | 100 | 100 | 100 | 100 | 100 | 100 | 90 | 100 | 90 | 100 | 100 | 90 | 100 | 90
10 | CCc1c(C(=O)Nc2nnc(C)o2)ccc(C(F)F)c1S(C)(=O)=O [Example 7-13] | 100 | 100 | 100 | 100 | 100 | 100 | 100 | 100 | 100 | 100 | 100 | 100 | 90 | 100 | 100 | 100 | 100 | 100
11 | CCSc1c(C(F)F)ccc(C(=O)Nc2nnc(C)o2)c1CC [Example 7-14] | 100 | 100 | 90 | 100 | 100 | 100 | 100 | 100 | 100 | 100 | 90 | 90 | 90 | 100 | 100 | 90 | 100 | 100
